# From PubChem BioAssay (NCI)
# Where “and” joins values, the source holds several entries; their conditions need not be identical. Equal values may be shown once.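 A five-concentration, 48-hour dose response in 96-well plates underlies each endpoint, interpolated linearly between surrounding concentrations. GI50: concentration for 50% inhibition of growth. TGI: concentration producing complete growth inhibition.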
# What was measured:
# Test in all cases: inhibition of tumour cell growth, NCI panel, 48 h
# [1] = test system: MCF7 breast
# [2] = test system: MDA-MB-231 breast
# [3] = test system: MDA-MB-435
# [4] = test system: NCI-H226 lung
# [5] = test system: RPMI-8226 leukemia
# [6] = test system: SF-268 CNS
# [7] = test system: SF-539 CNS
# [8] = test system: SK-MEL-5 melanoma
# [9] = test system: SW-620 colon
# [10] = test system: UACC-257 melanoma
Structure (SMILES),GI50 [1],TGI [1],GI50 [2],TGI [2],GI50 [3],TGI [3],GI50 [4],TGI [4],GI50 [5],TGI [5],GI50 [6],TGI [6],GI50 [7],TGI [7],GI50 [8],TGI [8],GI50 [9],TGI [9],GI50 [10],TGI [10]
CC(C)(C)OC(=O)CN1CCc2c(sc3ncnc(N/N=C/c4cccc5ccccc45)c23)C1,0.923 µM,2.85 µM,2.64 µM,9.21 µM,2.1 µM,9.83 µM,4.28 µM,12.8 µM,1.05 µM,4.22 µM,3.59 µM,24.3 µM,1.73 µM,7.02 µM,4.08 µM,8.28 µM,1.8 µM,7.96 µM,4.59 µM,21.7 µM
CN1CCN(CCNc2ccc(CO)c3sc4ccccc4c(=O)c23)CC1,1.85 µM,8.77 µM,3.99 µM,15.2 µM,1.98 µM,4.51 µM,–,13 µM,–,23.4 µM,–,20.7 µM,–,10.7 µM,–,9.88 µM,–,14.1 µM,–,9.84 µM
O=C(O)c1cscc1Cc1cccs1,–,> 100 µM,–,> 100 µM,–,> 100 µM,–,> 100 µM,–,> 100 µM,–,> 100 µM,–,> 100 µM,–,> 100 µM,–,> 100 µM,–,> 100 µM
C[C@]12C3CC[C@@]4(CO)C[C@]3(CCC1[C@](C)(C(=O)O)CC[C@@H]2O)CC4=O (stereo partly drawn),> 100 µM,> 100 µM,> 100 µM,> 100 µM,> 100 µM,> 100 µM,> 100 µM,> 100 µM,> 100 µM,> 100 µM,> 100 µM,> 100 µM,> 100 µM,> 100 µM,> 100 µM,> 100 µM,> 100 µM,> 100 µM,> 100 µM,> 100 µM
CCCCCCC#CC#Cc1cccc(=O)o1,2.22 µM,22.3 µM,1.64 µM,3.72 µM,1.39 µM,3.28 µM,2.07 µM,4.7 µM,1.72 µM,27.3 µM,2.69 µM,11.9 µM,3.19 µM,12 µM,0.304 µM,0.994 µM,0.974 µM,2.78 µM,2.21 µM,7.87 µM
NC(=S)N/N=C\c1nccc2c(N)cccc12,0.218 µM,–,0.471 µM,> 100 µM,0.379 µM,> 100 µM,0.282 µM,1.08 µM,0.223 µM,> 82.8 µM,0.242 µM,–,0.146 µM,0.757 µM,0.324 µM,4.01 µM,0.476 µM,> 100 µM,0.624 µM,9.44 µM
COc1ccc2c(c1)cn1c3ccc(O)cc3[nH]c(=O)c21,0.366 µM,1.95 µM,0.469 µM,2.47 µM,0.0252 µM,0.171 µM,0.181 µM,6.92 µM,0.306 µM,1.93 µM,0.136 µM,19.1 µM,0.175 µM,1.16 µM,0.0362 µM,1.32 µM,0.043 µM,2.55 µM,0.836 µM,18.5 µM
Oc1c(I)cc(-c2nc3ccccc3s2)cc1CN(Cc1ccccn1)Cc1ccccn1,0.34 µM,35 µM,0.217 µM,10.4 µM,0.428 µM,14.3 µM,0.269 µM,3.16 µM,0.385 µM,3.03 µM,0.301 µM,95.2 µM,0.246 µM,0.903 µM,0.179 µM,0.438 µM,0.402 µM,3.32 µM,0.87 µM,> 100 µM
COC(=O)C1(C2CC/C(C)=C/CC/C(C)=C/CC[C@@]3(C)O[C@@H]3C2)CC1 (stereo partly drawn),51.1 µM,> 100 µM,> 48.6 µM,> 74.7 µM,32.1 µM,98.3 µM,> 72.2 µM,> 100 µM,16.9 µM,48.4 µM,> 100 µM,> 100 µM,35.2 µM,> 69.2 µM,56.1 µM,> 100 µM,40 µM,> 100 µM,> 83.7 µM,> 100 µM
CCOc1ccc2ccc3cccnc3c2n1,–,45.8 µM,–,> 100 µM,–,> 100 µM,–,> 100 µM,–,62.5 µM,–,> 100 µM,–,> 100 µM,–,> 100 µM,–,> 100 µM,–,85.1 µM
O=C(O)c1cc(Cc2ccc(O)c(C(=O)O)c2)ccc1O (tested in a mixture with another compound),2.53 µM,12.5 µM,3.25 µM,12.2 µM,4.2 µM,16 µM,7.29 µM,23.3 µM,2.62 µM,> 100 µM,7.88 µM,26.1 µM,11.4 µM,26.6 µM,4.9 µM,19.8 µM,3.55 µM,23.5 µM,3.34 µM,7.77 µM
CCc1c(O)c2c(c(O)c1C(C)=O)C(=O)c1c(cc(O)c(C(=O)O)c1C(=O)O)C2=O,–,> 100 µM,–,> 100 µM,–,> 100 µM,–,> 100 µM,–,> 100 µM,–,> 100 µM,–,> 100 µM,–,> 100 µM,–,> 100 µM,–,> 100 µM
NC(Cc1ccnnc1)C(=O)O (stereo not drawn),–,> 100 µM,–,> 100 µM,–,> 100 µM,–,> 100 µM,–,> 100 µM,–,> 100 µM,–,> 100 µM,–,> 100 µM,–,> 100 µM,–,> 100 µM
O=S(=O)(O)/C(=C\c1ccccc1)c1ccccc1 (tested in a mixture with another compound),–,> 100 µM,–,> 100 µM,–,> 100 µM,–,> 100 µM,–,> 100 µM,–,> 100 µM,–,> 100 µM,–,> 100 µM,–,> 100 µM,–,> 100 µM
COc1ccc(/C=C(/C)[N+](=O)[O-])cc1,–,2.51 µM,–,9.89 µM,–,4.16 µM,–,39.7 µM,–,3.75 µM,–,9.42 µM,–,3.68 µM,–,5.92 µM,–,> 20.6 µM,–,3.08 µM
O=C(Nc1cccc(O)c1)c1cccc(NC2=C(Cl)C(=O)N(Cc3ccccc3)C2=O)c1,23.4 µM,59.9 µM,11.9 µM,31.9 µM,2.59 µM,11.4 µM,18.7 µM,44.4 µM,1.49 µM,27 µM,21.8 µM,54.2 µM,3.57 µM,15.6 µM,6.09 µM,20.1 µM,6.53 µM,29.9 µM,14 µM,31.8 µM
O=C1C(=O)c2ccccc2C(O)=C1CC=C(Cl)Cl,5.15 µM and 4.73 µM,> 58.5 µM and 131 µM and > 100 µM,3.59 µM,> 52.8 µM and 119 µM and 56.2 µM,5.7 µM and 7.43 µM,29.2 µM and 109 µM and 80.6 µM,8.26 µM and 24.2 µM and 14.4 µM,39.9 µM and 135 µM and 91.1 µM,6.53 µM,37.4 µM and 65.2 µM and 45.9 µM,9.02 µM and 7.72 µM,202 µM and > 100 µM,2.45 µM and 3.72 µM,54.3 µM and 107 µM and > 100 µM,3.54 µM,22.6 µM and 43 µM and 21.6 µM,6.98 µM and 4.68 µM,> 80.5 µM and 231 µM and > 100 µM,–,58.2 µM and 65.8 µM and 65.3 µM
C(=C\c1nccc2c1[nH]c1ccccc12)/c1ccccc1,2.15 µM,23 µM,1.76 µM,8.02 µM,0.356 µM,1.81 µM,4.09 µM,> 100 µM,1.07 µM,3.92 µM,5.23 µM,> 100 µM,1.98 µM,4.51 µM,2.27 µM,8.05 µM,2.39 µM,18.1 µM,17.8 µM,76.7 µM
COc1cc(NCc2ccccc2O)c2ncccc2c1,24.4 µM,> 100 µM,14.3 µM,> 100 µM,11.6 µM,37.9 µM,20.8 µM,> 100 µM,11.8 µM,79.5 µM,22.5 µM,> 100 µM,21 µM,> 100 µM,10.1 µM,23.4 µM,32.2 µM,> 100 µM,19.5 µM,70.7 µM
CC(C)(C)[Si](C)(C)OCC1C=CC(n2cnc3c(N)ncnc32)O1 (stereo not drawn),–,> 75.4 µM,–,> 73.6 µM,–,57.1 µM,–,> 69.6 µM,–,58.3 µM,–,> 100 µM,–,> 81.5 µM,–,34.1 µM,–,> 95.8 µM,–,98.4 µM
C1=C(c2ccccc2)SC=C(c2ccccc2)S1,–,48.2 µM,–,> 100 µM,–,32.2 µM,–,81.8 µM,–,> 100 µM,–,> 100 µM,–,> 100 µM,–,77.9 µM,–,> 100 µM,–,> 100 µM
COc1ccc(Cl)cc1NC(=O)c1cccc([N+](=O)[O-])c1O,–,66.2 µM,–,> 100 µM,–,> 100 µM,–,64.9 µM,–,> 69.5 µM,–,> 100 µM,–,33 µM,–,14.7 µM,–,> 100 µM,–,> 67.9 µM
CC1SC(c2c(Cl)cccc2Cl)N(NC(=O)C(O)c2ccccc2)C1=O (stereo not drawn),74.2 µM,> 100 µM,31.6 µM,> 100 µM,43.2 µM,> 100 µM,> 100 µM,> 100 µM,35.8 µM,> 100 µM,> 100 µM,> 100 µM,> 100 µM,> 100 µM,68.4 µM,> 100 µM,> 100 µM,> 100 µM,86.3 µM,> 100 µM
CC(=O)c1cc2c(c3ccsc13)-c1ccccc1CC2,21 µM,> 100 µM,16.4 µM,67.1 µM,4.76 µM,> 100 µM,38 µM,> 100 µM,25.8 µM,75 µM,43.4 µM,> 100 µM,27.9 µM,> 100 µM,12.7 µM,35.7 µM,33.7 µM,> 100 µM,47.1 µM,> 100 µM
COc1cc(C2=NN(c3ccc(S(N)(=O)=O)cc3)C(c3ccc(Cl)cc3)C2)cc(OC)c1OC (stereo not drawn),3.36 µM,> 100 µM,3.95 µM,> 100 µM,3.74 µM,> 100 µM,7.25 µM,> 100 µM,3.7 µM,> 100 µM,6.86 µM,> 100 µM,5.12 µM,> 100 µM,3.35 µM,18 µM,4.49 µM,> 100 µM,9.5 µM,> 100 µM
COc1cc2cc(Oc3ccc(NC(=O)Nc4ccc(Cl)c(C(F)(F)F)c4)cc3)c(C)nc2cc1OC,1.08 µM,3.88 µM,0.681 µM,1.84 µM,1.03 µM,4.71 µM,1.27 µM,5.01 µM,0.635 µM,1.65 µM,1.55 µM,6.34 µM,1.96 µM,8.39 µM,0.793 µM,2.17 µM,1.25 µM,4.57 µM,0.71 µM,2.36 µM
C/C1=C\C/C=C(\C)[C@H]2CC(CC/C(C)=C/CC1)[C@](C)(C=O)O2,38.2 µM,87.8 µM,> 100 µM,> 100 µM,66.1 µM,> 100 µM,> 100 µM,> 100 µM,27.1 µM,76.8 µM,> 100 µM,> 100 µM,> 100 µM,> 100 µM,77.1 µM,> 100 µM,51.1 µM,> 100 µM,> 100 µM,> 100 µM
CO[C@@]12C[C@H]3[C@@H]([C@@H](O)[C@@H](OC(=O)/C=C/c4ccccc4)[C@@]4(O)C(C)(C)CCC[C@]34C)[C@@H](C)C1=CC(=O)O2,8.68 µM,> 100 µM,0.585 µM,4.6 µM,4.85 µM,28.2 µM,4.76 µM,18.8 µM,3.58 µM,20.8 µM,6.78 µM,72.8 µM,12.4 µM,27.4 µM,4.55 µM,18.3 µM,12.2 µM,31.5 µM,14.4 µM,32.1 µM
N#C/C(N)=C(\C#N)N=Cc1csc2ccccc12,3.41 µM,> 100 µM,15.2 µM,41 µM,36.2 µM,> 100 µM,19.4 µM,76.3 µM,> 100 µM,> 100 µM,–,–,20.1 µM,50.9 µM,22.9 µM,> 100 µM,> 100 µM,> 100 µM,> 100 µM,> 100 µM
